Reference: US9908912B2, “Triclosan derivatives and uses thereof” (priority 2012, dated 2018)

Key:
[1] = system: Crono. sakazakii ATCC 29544; assay: MIC in Nutrient Broth No. 2; assay type: cell-based, Cronobacter sakazakii; settings: Nutrient Broth No. 2
Experimental: (§1) Bacteria species as indicated in Table 1 were incubated for approximately 24 hours at 37° C.
(§2) The tests were repeated with the addition of inducers. Methyl glycoside was the main inducer used, but other suitable inducers include isopropyl-β-D-thiogalactopyranoside, p-nitrophenyl-α-L-arabinopyranoside and p-nitrophenyl-β-D-xylopyranoside. Concentration of inducer in all cases was 100 μg/ml.

[2] = system: S. aureus; assay: MIC in Nutrient Agar; assay type: cell-based, Staphylococcus aureus; settings: 8 strains; Nutrient Agar containing 0.1 μg/ml of inducer; 37° C., 24 hours
Experimental: (§3) The triclosan-glycosides were added to Nutrient Agar (Oxoid CM0003; Thermofisher Scientific) and organisms were transferred onto the plates surface using a multi-point inoculation device (Oxoid Cathra, Thermofisher Scientific). The latter is essentially a metal plate containing a number of needles. Each needle tip (usually 36 per plate) dips into an organism suspension (in phosphate buffered saline; PBS) and the needles are then moved over the agar plate and lowered onto its surface. In this way the growth of colonies of up to 36 different organisms can be observed on one plate.
(§4) Nutrient Agar No. 2 was prepared according to the manufacturers instructions, autoclaved and cooled to 50° C. Test compounds were then added as filter sterilised solutions (50:50 deionised water:ethanol), to give final concentrations from 256 μg/ml to 0 μg/ml in doubling dilutions. […] The mixtures were swirled then four plates (25 ml molten agar) were poured for each concentration. Plates were dried in a laminar flow cabinet then inoculated with overnight cultures of organisms that had been decimally diluted twice in sterile saline solution (approximately 10^7 cfu/ml) using a multi-point inoculator. Plates were then incubated at 37° C. for 24 hours. MICs were determined as the concentration at which no growth was observed.

[3] = system: Str. pyogenes; assay: MIC in Nutrient Agar; assay type: cell-based, Streptococcus pyogenes; settings: Nutrient Agar containing 0.1 μg/ml of inducer; 37° C., 24 hours
Experimental: as §3, §4

[4] = system: Staph. haemolyticus OCC 2223; assay: MIC in Nutrient Broth No. 2; assay type: cell-based, Staphylococcus haemolyticus; settings: Nutrient Broth No. 2
Experimental: as §1, §2

[5] = system: Kleb. pneumoniae; assay: MIC in Nutrient Agar; assay type: cell-based, Klebsiella pneumoniae; settings: Nutrient Agar containing 0.1 μg/ml of inducer; 37° C., 24 hours
Experimental: as §3, §4

[6] = system: Cr. sakazakii; assay: MIC in Nutrient Agar; assay type: cell-based, Cronobacter sakazakii; settings: Nutrient Agar containing 0.1 μg/ml of inducer; 37° C., 24 hours
Experimental: as §3, §4

[7] = system: Str. agalactiae; assay: MIC in Nutrient Agar; assay type: cell-based, Streptococcus agalactiae; settings: Nutrient Agar containing 0.1 μg/ml of inducer; 37° C., 24 hours
Experimental: as §3, §4

[8] = system: S. haemolyticus; assay: MIC in Nutrient Agar; assay type: cell-based, Staphylococcus haemolyticus; settings: Nutrient Agar containing 0.1 μg/ml of inducer; 37° C., 24 hours
Experimental: as §3, §4

[9] = system: Strep. agalactiae OCC 182; assay: MIC in Nutrient Broth No. 2; assay type: cell-based, Streptococcus agalactiae; settings: Nutrient Broth No. 2
Experimental: as §1, §2

[10] = system: Kleb. aerogenes NCTC 88167; assay: MIC in Nutrient Broth No. 2; assay type: cell-based, Klebsiella aerogenes; settings: Nutrient Broth No. 2
Experimental: as §1, §2

[11] = system: Ent. cloacae; assay: MIC in Nutrient Agar; assay type: cell-based, Enterobacter cloacae; settings: Nutrient Agar containing 0.1 μg/ml of inducer; 37° C., 24 hours
Experimental: as §3, §4

[12] = system: S. epidermidis; assay: MIC in Nutrient Agar; assay type: cell-based, Staphylococcus epidermidis; settings: 3 strains; Nutrient Agar containing 0.1 μg/ml of inducer; 37° C., 24 hours
Experimental: as §3, §4

[13] = system: Aer. hydrophila; assay: MIC in Nutrient Agar; assay type: cell-based, Aeromonas hydrophila; settings: Nutrient Agar containing 0.1 μg/ml of inducer; 37° C., 24 hours
Experimental: as §3, §4

[14] = system: Ser. marcescens; assay: MIC in Nutrient Agar; assay type: cell-based, Serratia marcescens; settings: Nutrient Agar containing 0.1 μg/ml of inducer; 37° C., 24 hours
Experimental: as §3, §4

[15] = system: Ent. aerogenes; assay: MIC in Nutrient Agar; assay type: cell-based, Enterobacter aerogenes; settings: Nutrient Agar containing 0.1 μg/ml of inducer; 37° C., 24 hours
Experimental: as §3, §4

[16] = system: Strep. pyogenes ATCC 19615; assay: MIC in Nutrient Broth No. 2; assay type: cell-based, Streptococcus pyogenes; settings: Nutrient Broth No. 2
Experimental: as §1, §2

[17] = system: Ent. faecalis; assay: MIC in Nutrient Agar; assay type: cell-based, Enterococcus faecalis; settings: Nutrient Agar containing 0.1 μg/ml of inducer; 37° C., 24 hours
Experimental: as §3, §4

[18] = system: Strep. viridans OCC 234; assay: MIC in Nutrient Broth No. 2; assay type: cell-based, Streptococcus viridans; settings: Nutrient Broth No. 2
Experimental: as §1, §2

[19] = system: Staph. epidermidis; assay: MIC in Nutrient Broth No. 2; assay type: cell-based, Staphylococcus epidermidis; settings: 3 strains, Nutrient Broth No. 2
Experimental: as §1, §2

[20] = system: Ent. cloacae ATCC 13047; assay: MIC in Nutrient Broth No. 2; assay type: cell-based, Enterobacter cloacae; settings: Nutrient Broth No. 2
Experimental: as §1, §2

[21] = system: Strep. pneumoniae ATCC 6305; assay: MIC in Nutrient Broth No. 2; assay type: cell-based, Streptococcus pneumoniae; settings: Nutrient Broth No. 2
Experimental: as §1, §2

[22] = system: Staph. aureus; assay: MIC in Nutrient Broth No. 2; assay type: cell-based, Staphylococcus aureus; settings: 8 strains, Nutrient Broth No. 2
Experimental: as §1, §2

[23] = system: Kleb. aerogenes; assay: MIC in Nutrient Agar; assay type: cell-based, Klebsiella aerogenes; settings: Nutrient Agar containing 0.1 μg/ml of inducer; 37° C., 24 hours
Experimental: as §3, §4

[24] = system: Str. pneumoniae; assay: MIC in Nutrient Agar; assay type: cell-based, Streptococcus pneumoniae; settings: Nutrient Agar containing 0.1 μg/ml of inducer; 37° C., 24 hours
Experimental: as §3, §4

[25] = system: E. hermanii ATCC 33650; assay: MIC in Nutrient Broth No. 2; assay type: cell-based, Escherichia hermanii; settings: Nutrient Broth No. 2
Experimental: as §1, §2

[26] = system: Staph. saprophyticus ATCC 15305; assay: MIC in Nutrient Broth No. 2; assay type: cell-based, Staphylococcus saprophyticus; settings: Nutrient Broth No. 2
Experimental: as §1, §2

[27] = system: Kleb. pneumoniae ATCC 10031; assay: MIC in Nutrient Broth No. 2; assay type: cell-based, Klebsiella pneumoniae; settings: Nutrient Broth No. 2
Experimental: as §1, §2

[28] = system: Ps. aeruginosa; assay: MIC in Nutrient Agar; assay type: cell-based; settings: Nutrient Agar containing 0.1 μg/ml of inducer; 37° C., 24 hours
Experimental: as §3, §4

[29] = system: Hafnia alvei; assay: MIC in Nutrient Agar; assay type: cell-based; settings: Nutrient Agar containing 0.1 μg/ml of inducer; 37° C., 24 hours
Experimental: as §3, §4

[30] = system: Bacillus cereus; assay: MIC in Nutrient Agar; assay type: cell-based; settings: Nutrient Agar containing 0.1 μg/ml of inducer; 37° C., 24 hours
Experimental: as §3, §4

[31] = system: Bacillus subtilis; assay: MIC in Nutrient Agar; assay type: cell-based; settings: Nutrient Agar containing 0.1 μg/ml of inducer; 37° C., 24 hours
Experimental: as §3, §4

[32] = system: Ent. faecium; assay: MIC in Nutrient Agar; assay type: cell-based, Enterococcus faecium; settings: Nutrient Agar containing 0.1 μg/ml of inducer; 37° C., 24 hours
Experimental: as §3, §4

Measured: MIC

OC[C@H]1O[C@H](Oc2cc(Cl)ccc2Oc2ccc(Cl)cc2Cl)[C@H](O)[C@@H](O)[C@H]1O [α-D-Galactoside, triclosan-α-D-galactopyranoside]
256 µg/mL: [16]; with inducer 100 μg/ml | [16]; without inducer | [21]; with inducer 100 μg/ml | [24]
8 µg/mL: [8] | [12]
8 to 32 µg/mL: [19]; without inducer
1 µg/mL: [27]; with inducer 100 μg/ml | [27]; without inducer
128 µg/mL: [1]; without inducer | [21]; without inducer | [31]
64 µg/mL: [1]; with inducer 100 μg/ml | [10]; with inducer 100 μg/ml | [15] | [26]; with inducer 100 μg/ml | [26]; without inducer
>256 µg/mL: [3] | [7] | [9]; with inducer 100 μg/ml | [9]; without inducer | [13] | [14] | [17] | [18]; with inducer 100 μg/ml | [18]; without inducer | [28] | [30] | [32]
4 to 256 µg/mL: [19]; with inducer 100 μg/ml
4 µg/mL: [29]
8 to 16 µg/mL: [22]; with inducer 100 μg/ml | [22]; without inducer
16 µg/mL: [4]; without inducer | [5] | [20]; with inducer 100 μg/ml
32 µg/mL: [4]; with inducer 100 μg/ml | [6] | [10]; without inducer | [11] | [20]; without inducer | [23] | [25]; with inducer 100 μg/ml | [25]; without inducer
4 to 8 µg/mL: [2]
